Experimental data from PubChem BioAssay (NCI).
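Compound exposure: 48 hours, 5 concentrations, 96-well plates. TGI: concentration producing complete growth inhibition.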

How the values were obtained:
Assay in all cases: DTP human tumour cell line panel, 48 h
SF-539 CNS = system: SF-539 CNS
SK-MEL-5 melanoma = system: SK-MEL-5 melanoma
OVCAR-5 ovarian = system: OVCAR-5 ovarian
HCT-15 colon = system: HCT-15 colon
SN12C renal = system: SN12C renal
MOLT-4 leukemia = system: MOLT-4 leukemia
DMS 114 small cell lung = system: DMS 114 small cell lung
OVCAR-4 ovarian = system: OVCAR-4 ovarian
SNB-19 CNS = system: SNB-19 CNS
NCI-H460 lung = system: NCI-H460 lung
HOP-18 NSCLC = system: HOP-18 NSCLC
NCI-H23 lung = system: NCI-H23 lung
NCI-H522 lung = system: NCI-H522 lung
UACC-257 melanoma = system: UACC-257 melanoma
786-0 renal = system: 786-0 renal
SF-268 CNS = system: SF-268 CNS
XF 498 CNS = system: XF 498 CNS
OVCAR-3 ovarian = system: OVCAR-3 ovarian
UO-31 renal = system: UO-31 renal
SNB-78 CNS = system: SNB-78 CNS
SNB-75 CNS = system: SNB-75 CNS
KM12 colon = system: KM12 colon
SK-MEL-2 melanoma = system: SK-MEL-2 melanoma
HT29 colon = system: HT29 colon
M19-MEL melanoma = system: M19-MEL melanoma
CCRF-CEM leukemia = system: CCRF-CEM leukemia
HCC-2998 colon = system: HCC-2998 colon
NCI-H226 lung = system: NCI-H226 lung
HCT-116 colon = system: HCT-116 colon
HL-60(TB) leukemia = system: HL-60(TB) leukemia
ACHN renal = system: ACHN renal
SK-MEL-28 melanoma = system: SK-MEL-28 melanoma
LOX IMVI melanoma = system: LOX IMVI melanoma
DMS 273 small cell lung = system: DMS 273 small cell lung
K-562 leukemia = system: K-562 leukemia
COLO 205 colon = system: COLO 205 colon
CAKI-1 renal = system: CAKI-1 renal
A549 NSCLC = system: A549 NSCLC
OVCAR-8 ovarian = system: OVCAR-8 ovarian
SR leukemia = system: SR leukemia
EKVX NSCLC = system: EKVX NSCLC
HOP-62 NSCLC = system: HOP-62 NSCLC
SW-620 colon = system: SW-620 colon
SF-295 CNS = system: SF-295 CNS
TK-10 renal = system: TK-10 renal
MALME-3M melanoma = system: MALME-3M melanoma
RPMI-8226 leukemia = system: RPMI-8226 leukemia
M14 melanoma = system: M14 melanoma
IGROV1 ovarian = system: IGROV1 ovarian
RXF 393 renal = system: RXF 393 renal
U251 CNS = system: U251 CNS
A498 renal = system: A498 renal
KM20L2 colon = system: KM20L2 colon
SK-OV-3 ovarian = system: SK-OV-3 ovarian
LXFL 529 NSCLC = system: LXFL 529 NSCLC
DLD-1 colon = system: DLD-1 colon
HOP-92 NSCLC = system: HOP-92 NSCLC
UACC-62 melanoma = system: UACC-62 melanoma

Measured: TGI

COc1ccc(/C=C2\C(=O)N(C(=O)c3ccc(NC(C)=O)cc3)N=C2C)cc1
not listed: IGROV1 ovarian | RXF 393 renal | U251 CNS | A498 renal | KM20L2 colon | SK-OV-3 ovarian | LXFL 529 NSCLC | DLD-1 colon | HOP-92 NSCLC | UACC-62 melanoma
> 100 µM: all other assays above

CN(C)N=Nc1ccccc1
not listed: OVCAR-5 ovarian | UACC-257 melanoma | SNB-78 CNS | LOX IMVI melanoma | HOP-62 NSCLC | UACC-62 melanoma
> 100 µM: all other assays above

Cc1cc(O)c(C(=O)O)c2c1C(=O)c1c(O)c(OCC(O)C(O)C(O)C(O)CO)c(O)c(O)c1C2=O (configuration not stated) (tested in a mixture with another compound)
not listed: NCI-H460 lung | HCT-116 colon | HL-60(TB) leukemia | ACHN renal | DMS 273 small cell lung | SR leukemia
> 100 µM: all other assays above
